Measured values published in patent US20100254902A1, “STABILIZATION OF RADIOPHARMACEUTICALS” (priority 2008, published 2010).

Experiment: Radiochemical purity (RCP) of [^18F]FDG composition by TLC, stability testing
Description: Radiochemical purity of [^18F]FDG composition samples was determined at end of synthesis (EOS) and at Expiry i.e. after 10 hours storage at 22° C.±3° C. to determine stability of the composition.
To a series of vials was added an amount of stabilizer dissolved in Buffer.
At EOS (within 2 hours), a 100-fold dilution of the test solution was prepared by addition of a 10 μl sample to a 990 μl volume of water for injection. After mixing, a 2 μl sample was applied to a TLC strip.
At 10 hours after synthesis, a 10-fold dilution was made by addition of a 20 μl sample to a 180 μl volume of water for injection. After mixing, a 3 μl sample was applied to a TLC strip.
Within 1 to 3 hours after manufacture, radiochemical purity (RCP) was determined by TLC. The vials were stored at 22° C.±3° C. and at 10 hours after synthesis, RCP was again determined by TLC.

RCP at EOS+10 h, difference GA versus ethanol (Example 5, vial 6 versus vial 5) [%] | stabiliser quality compared with ethanol (conclusion) (Example 5, vial 6 versus vial 5, approximately 2 mg/ml stabilizer) | Compound | stabilising effect on [^18F]FDG composition (conclusion) (Example 1, additives 2.5-20 mg/ml acetone or ethanol, 3-6 mg/ml gentisic acid) | effect of increasing amounts of gentisic acid on stabilisation of [^18F]FDG (Examples 2-4, batches <50 GBq at EOS, ranges 0.1-0.5, 0.5-1 and 1-2 mg/ml)
 |  | CC(C)=O [Acetone, reference compound] | slight stabilising effect | 
1 | better stabiliser than ethanol | O=C(O)c1cc(O)ccc1O [gentisic acid, 2,5-dihydroxybenzoic acid] |  | the higher amount was found to be more effective
